Test system: mouse B2M gene
Assay: In vivo editing in mouse bone marrow, G650 sgRNA, % indel by NGS
Design: species or system CD-1 female mice
Details: G650, i.v. dose 1 mg/kg, experiment 108
Description: [Worded in the source for another target; this target is reported under the same test.] In brief, to quantitatively determine the efficiency of editing at the target location in the genome, genomic DNA was isolated and deep sequencing was utilized to identify the presence of insertions and deletions introduced by gene editing.
PCR primers were designed around the target site (e.g., within B2M), and the genomic area of interest was amplified. Additional PCR was performed according to the manufacturer's protocols (Illumina) to add the necessary chemistry for sequencing. The amplicons were sequenced on an Illumina MiSeq instrument. The reads were aligned to the mouse or rat reference genome (e.g., GRCm38) after eliminating those having low quality scores. The resulting files containing the reads were mapped to the reference genome (BAM files), where reads that overlapped the target region of interest were selected and the number of wild type reads versus the number of reads which contain an insertion, substitution, or deletion was calculated.
The editing percentage (e.g., the “indel efficiency” or “percent indels”) was defined as the total number of sequence reads with insertions or deletions over the total number of sequence reads, including wild type.
The in vivo delivery to liver, spleen, and bone marrow was assessed by measuring editing efficiency for materials delivered with formulations including various amine lipid compounds. […]

SMILES | % Editing in BM [%]
CCCCC/C=C\C/C=C\CCCCCCCC(=O)OCC(COC(=O)CCC(OCCCCCCCC)OCCCCCCCC)COC(=O)OCCCN(CC)CC (centres unmarked) [Compound 1, 3-((4,4-bis(octyloxy)butanoyl)oxy)-2-((((3-(diethylamino)propoxy)carbonyl)oxy)methyl)propyl (9Z,12Z)-octadeca-9,12-dienoate, reference compound] | 2.66
CCCCC/C=C\C/C=C\CCCCCCCC(=O)OCC(COC(=O)CC12CC3CC(CC(C3)C1)C2)COC(=O)OCCCN(CC)CC (centres unmarked) [Compound 107, 3-(2-((3 r,5 r, 7r)-adamantan-1-yl)acetoxy)-2-((((3-(diethylamino)propoxy)carbonyl)oxy)methyl)propyl (9Z,12Z)-octadeca-9,12-dienoate] | 0.32

Reference: patent US20220402862A1 (Intellia Therapeutics, Inc., priority 2019, published 2022)
